Earlier results on one compound are cited in publication PMC2749889 (Journal of neurochemistry, 2009).

The test system of one series is α6 ^*. Particulars: ref Klink et al. 2001; Mogg et al. 2002.
The subject of another series is α9 homomers. As to conditions: read-out: IC50, α9 homomers; ref Verbitsky et al. 2000.

A word on the IC50: it is the concentration that inhibits the measured activity by half. Take `CCN1C[C@]2(COC(=O)c3ccccc3N3C(=O)C[C@H](C)C3=O)CC[C@H](OC)[C@@]34[C@@H]5C[C@H]6[C@H](OC)[C@@H]5[C@](O)(C[C@@H]6OC)[C@@](O)([C@@H](OC)[C@H]23)[C@@H]14` [MLA, Methyllycaconitine]: the “block of α6 ^*” value in the series on α6 ^* is on record as “blocks”. Further, the IC50 with α9 homomers is 1.1 nM.
